Data: patent US8969516B2, “Method of hydrolysis of peptide bond” (priority 2006, dated 2015)

Test: MALDI-TOF screening of Ni^2+ dependent hydrolysis in a combinatorial peptide library
Type: physicochemical
Details: Ni^2+ 2 mM, pH 8.2, 10 mM Tris, score=24/tm
Source text: The sequence CH3CO-Gly-Ala-Ser/Thr-X-His-Z-Lys-Phe-Leu-NH2 was designed so that the fixed R1 and R2 sequences, CH3CO-Gly-Ala, and Lys-Phe-Leu-NH2, respectively, allowed optimal detection by MALDI-TOF mass spectrometry of substrates as well as expected products, Ser/Thr-X-His-Z-Lys-Phe-Leu-NH2 and assured separation between the clusters of signals for substrates and products in sublibraries (see below).
Residues in position X included all amino acids commonly present in proteins, except for Asp, Glu, and Cys. The former two contain carboxylates in their side chains, which may bind Ni^2+ in a way which would quench or slow down the hydrolysis reaction. The Cys residue may do the same, and also may engage in side reactions with Ni^2+ ions, including redox processes (for example see Bal and Kasprzak, Toxicol. Lett. 2002, 127, 55-62). Only the Cys residue was eliminated from position Z, for the same reasons.
The synthesis of the library was accomplished on a RINK amide resin (Novabiochem) on a 800 mg scale, according to a typical Fmoc protocol (Fields, Meth. Enzymol. Vol. 289). The resin-attached Leu-Phe-Lys peptide was synthesised first and coupled with the isokinetic mixture of 19 amino acids selected for position Z, and then with the H is residue. The resin carrying the library of pentapeptides was divided into Ser and Thr halves at this stage, and each of these halves into 17 portions, which were coupled with individual amino acids selected for position X. The coupling with Ser or Thr as appropriate, additions of Ala and Gly residues, acetylation of Gly, deprotection and cleavage from the resin were accomplished subsequently. Each of the resulting 34 samples of sublibraries randomized at position X was separated into two portions, one for the reaction at 37° C. and another for the reaction at 45° C. The hydrolysis reactions were accomplished in 10 mM Tris buffers at pH 8.2. The total concentrations of peptide mixtures and Ni^2+ ions were 1 mM and 2 mM, respectively. The pH for the reaction was chosen as selective for highly reactive sequences.
The detection of reaction products was accomplished with the use of a MALDI-TOF mass spectrometer (Micromass). The aliquots were removed from reaction mixtures and measured by MS at 2, 4, 6, and 8 hours of incubation. The progress of reaction was evaluated by visual detection in mass spectra of appearance of signals corresponding to expected products of hydrolysis, Ser/Thr-X-His-Z-Lys-Phe-Leu-NH2, at given measurement times, tm. […] Also the decrease of signals of substrates was controlled in these cases.
Residues X and Z were then sorted according to various molecular parameters, describing their physical properties (Carugo, In Silico Biol. 2003, 3, 0035). […] The Ser library provided a higher number of reactive peptides than the Thr library. Following the additivity of effects, the scores were also summed up in lines and columns of Table 1A-D, thereby creating final rankings for preferred substitutions in positions X and Z.

[1] = CH3CO-Gly-Ala-Thr-X-His-Z-Lys-Phe-Leu-NH2 library, 37° C.
[2] = CH3CO-Gly-Ala-Thr-X-His-Z-Lys-Phe-Leu-NH2 library, 45° C.
[3] = CH3CO-Gly-Ala-Ser-X-His-Z-Lys-Phe-Leu-NH2 library, 37° C.
[4] = CH3CO-Gly-Ala-Ser-X-His-Z-Lys-Phe-Leu-NH2 library, 45° C.

Substance	hydrolysis score from MALDI-TOF screening [1]	hydrolysis score from MALDI-TOF screening [2]	hydrolysis score from MALDI-TOF screening [3]	hydrolysis score from MALDI-TOF screening [4]
Ac-GATWHGKFL-NH2 [TWHG]	0 (a score of 0 if no trace of the product of hydrolysis was seen after 8 hours of incubation)	0 (a score of 0 if no trace of the product of hydrolysis was seen after 8 hours of incubation)		
Ac-GASWHTKFL-NH2 [SWHT]			0 (a score of 0 if no trace of the product of hydrolysis was seen after 8 hours of incubation)	0 (a score of 0 if no trace of the product of hydrolysis was seen after 8 hours of incubation)
Ac-GATRHTKFL-NH2 [TRHT]	0 (a score of 0 if no trace of the product of hydrolysis was seen after 8 hours of incubation)	0 (a score of 0 if no trace of the product of hydrolysis was seen after 8 hours of incubation)		
Ac-GATVHVKFL-NH2 [TVHV]	0 (a score of 0 if no trace of the product of hydrolysis was seen after 8 hours of incubation)	0 (a score of 0 if no trace of the product of hydrolysis was seen after 8 hours of incubation)		
Ac-GATLHNKFL-NH2 [TLHN]	0 (a score of 0 if no trace of the product of hydrolysis was seen after 8 hours of incubation)	0 (a score of 0 if no trace of the product of hydrolysis was seen after 8 hours of incubation)		
Ac-GATHHRKFL-NH2 [THHR]	6 (a score of 6 for detection at 4 hours)	6 (a score of 6 for detection at 4 hours)		
Ac-GASKHKKFL-NH2 [SKHK]			6 (a score of 6 for detection at 4 hours)	12 (a score of 12, if it was seen to be partially hydrolysed at 2 hours)
Ac-GATLHVKFL-NH2 [TLHV]	0 (a score of 0 if no trace of the product of hydrolysis was seen after 8 hours of incubation)	0 (a score of 0 if no trace of the product of hydrolysis was seen after 8 hours of incubation)		
Ac-GATQHNKFL-NH2 [TQHN]	0 (a score of 0 if no trace of the product of hydrolysis was seen after 8 hours of incubation)	0 (a score of 0 if no trace of the product of hydrolysis was seen after 8 hours of incubation)		
Ac-GATSHHKFL-NH2 [TSHH]	0 (a score of 0 if no trace of the product of hydrolysis was seen after 8 hours of incubation)	0 (a score of 0 if no trace of the product of hydrolysis was seen after 8 hours of incubation)		
Ac-GASHHYKFL-NH2 [SHHY]			3 (a score of 3 for detection at 8 hours)	4 (a score of 4 for detection at 6 hours)
Ac-GATAHIKFL-NH2 [TAHI]	0 (a score of 0 if no trace of the product of hydrolysis was seen after 8 hours of incubation)	0 (a score of 0 if no trace of the product of hydrolysis was seen after 8 hours of incubation)		
Ac-GATVHKKFL-NH2 [TVHK]	0 (a score of 0 if no trace of the product of hydrolysis was seen after 8 hours of incubation)	0 (a score of 0 if no trace of the product of hydrolysis was seen after 8 hours of incubation)		
Ac-GATAHQKFL-NH2 [TAHQ]	0 (a score of 0 if no trace of the product of hydrolysis was seen after 8 hours of incubation)	0 (a score of 0 if no trace of the product of hydrolysis was seen after 8 hours of incubation)		
Ac-GATFHYKFL-NH2 [TFHY]	0 (a score of 0 if no trace of the product of hydrolysis was seen after 8 hours of incubation)	0 (a score of 0 if no trace of the product of hydrolysis was seen after 8 hours of incubation)		
Ac-GATGHIKFL-NH2 [TGHI]	0 (a score of 0 if no trace of the product of hydrolysis was seen after 8 hours of incubation)	0 (a score of 0 if no trace of the product of hydrolysis was seen after 8 hours of incubation)		

Substance	hydrolysis score from MALDI-TOF screening [1]	hydrolysis score from MALDI-TOF screening [2]	hydrolysis score from MALDI-TOF screening [3]	hydrolysis score from MALDI-TOF screening [4]
Ac-GASIHHKFL-NH2 [SIHH]			3 (a score of 3 for detection at 8 hours)	3 (a score of 3 for detection at 8 hours)
Ac-GATGHEKFL-NH2 [TGHE]	0 (a score of 0 if no trace of the product of hydrolysis was seen after 8 hours of incubation)	0 (a score of 0 if no trace of the product of hydrolysis was seen after 8 hours of incubation)		
Ac-GATHHLKFL-NH2 [THHL]	3 (a score of 3 for detection at 8 hours)	12 (a score of 12, if it was seen to be partially hydrolysed at 2 hours)		
Ac-GATSHAKFL-NH2 [TSHA]	0 (a score of 0 if no trace of the product of hydrolysis was seen after 8 hours of incubation)	0 (a score of 0 if no trace of the product of hydrolysis was seen after 8 hours of incubation)		
Ac-GATQHSKFL-NH2 [TQHS]	0 (a score of 0 if no trace of the product of hydrolysis was seen after 8 hours of incubation)	0 (a score of 0 if no trace of the product of hydrolysis was seen after 8 hours of incubation)		
Ac-GATYHLKFL-NH2 [TYHL]	0 (a score of 0 if no trace of the product of hydrolysis was seen after 8 hours of incubation)	0 (a score of 0 if no trace of the product of hydrolysis was seen after 8 hours of incubation)		
Ac-GATPHLKFL-NH2 [TPHL]		0 (a score of 0 if no trace of the product of hydrolysis was seen after 8 hours of incubation)		
Ac-GASPHNKFL-NH2 [SPHN]			0 (a score of 0 if no trace of the product of hydrolysis was seen after 8 hours of incubation)	0 (a score of 0 if no trace of the product of hydrolysis was seen after 8 hours of incubation)
Ac-GASMHKKFL-NH2 [SMHK]			3 (a score of 3 for detection at 8 hours)	6 (a score of 6 for detection at 4 hours)
Ac-GASAHRKFL-NH2 [SAHR]			3 (a score of 3 for detection at 8 hours)	6 (a score of 6 for detection at 4 hours)
Ac-GASLHIKFL-NH2 [SLHI]			3 (a score of 3 for detection at 8 hours)	0 (a score of 0 if no trace of the product of hydrolysis was seen after 8 hours of incubation)
Ac-GATIHTKFL-NH2 [TIHT]	0 (a score of 0 if no trace of the product of hydrolysis was seen after 8 hours of incubation)	0 (a score of 0 if no trace of the product of hydrolysis was seen after 8 hours of incubation)		
Ac-GATKHTKFL-NH2 [TKHT]	0 (a score of 0 if no trace of the product of hydrolysis was seen after 8 hours of incubation)	0 (a score of 0 if no trace of the product of hydrolysis was seen after 8 hours of incubation)		
Ac-GASPHHKFL-NH2 [SPHH]			0 (a score of 0 if no trace of the product of hydrolysis was seen after 8 hours of incubation)	0 (a score of 0 if no trace of the product of hydrolysis was seen after 8 hours of incubation)
Ac-GASNHGKFL-NH2 [SNHG]			0 (a score of 0 if no trace of the product of hydrolysis was seen after 8 hours of incubation)	0 (a score of 0 if no trace of the product of hydrolysis was seen after 8 hours of incubation)
Ac-GASKHMKFL-NH2 [SKHM]			3 (a score of 3 for detection at 8 hours)	4 (a score of 4 for detection at 6 hours)
